Data reported in the supplement of paper PMC10307832.

Experiments:
Experiment in all cases: relative viability (nuclei count vs DMSO), 5 days (fraction); higher = more cells survive
A-427 = tested on: A-427
Procedure, shortened: (§1)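 Cells from lung cancer lines were seeded into 1536-well plates and, one day later, dosed by pin tool. Treatments were either a single drug or a fixed dose of an anchor drug with five library-drug doses (not always all listed) in √10 steps. After 5 days, nuclei were stained in a one-step fixation (final 0.05% Triton X-100, 1% formaldehyde, 1 ug/ml Hoechst) and counted on 4× images, and relative viability is the treated-to-vehicle nuclei ratio, as the median of duplicate plates.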

ChaGo-K-1 = tested on: ChaGo-K-1
Procedure, shortened: as §1

HCC-366 = tested on: HCC-366
Procedure, shortened: as §1

NCI-H23 = tested on: NCI-H23
Procedure, shortened: as §1

NCI-H2228 = tested on: NCI-H2228
Procedure, shortened: as §1

HCC-78 = tested on: HCC-78
Procedure, shortened: as §1

EMC-BAC-2 = tested on: EMC-BAC-2
Procedure, shortened: as §1

NCI-H1793 = tested on: NCI-H1793
Procedure, shortened: as §1

NCI-H1993 = tested on: NCI-H1993
Procedure, shortened: as §1

NCI-H1734 = tested on: NCI-H1734
Procedure, shortened: as §1

NCI-H2405 = tested on: NCI-H2405
Procedure, shortened: as §1

NCI-H2126 = tested on: NCI-H2126
Procedure, shortened: as §1

NCI-H2023 = tested on: NCI-H2023
Procedure, shortened: as §1

HCC-15 = tested on: HCC-15
Procedure, shortened: as §1

SK-LU-1 = tested on: SK-LU-1
Procedure, shortened: as §1

HARA = tested on: HARA
Procedure, shortened: as §1

LC-2-ad = tested on: LC-2-ad
Procedure, shortened: as §1

NCI-H2009 = tested on: NCI-H2009
Procedure, shortened: as §1

UMC-11 = tested on: UMC-11
Procedure, shortened: as §1

ABC-1 = tested on: ABC-1
Procedure, shortened: as §1

NCI-H838 = tested on: NCI-H838
Procedure, shortened: as §1

NCI-H1944 = tested on: NCI-H1944
Procedure, shortened: as §1

COR-L23 = tested on: COR-L23
Procedure, shortened: as §1

NC(=O)Nc1cc(-c2cccc(F)c2)sc1C(=O)N[C@H]1CCCNC1 [AZD7762] + Cc1cc(Nc2cc(N3CCN(C)CC3)nc(Sc3ccc(NC(=O)C4CC4)cc3)n2)n[nH]1 [Tozasertib] (partner 0.1 µM)
relative viability (A-427; first compound 0.01 µM): 0.215 | relative viability (A-427; first compound 0.03162 µM): 0.218 | relative viability (A-427; first compound 0.1 µM): 0.207 | relative viability (A-427; first compound 0.3162 µM): 0.179 | relative viability (A-427; first compound 1 µM): 0.175 | relative viability (ChaGo-K-1; first compound 0.01 µM): 0.215 | relative viability (ChaGo-K-1; first compound 0.03162 µM): 0.224 | relative viability (ChaGo-K-1; first compound 0.1 µM): 0.239 | relative viability (ChaGo-K-1; first compound 0.3162 µM): 0.197 | relative viability (ChaGo-K-1; first compound 1 µM): 0.227 | relative viability (HCC-366; first compound 0.01 µM): 0.144 | relative viability (HCC-366; first compound 0.03162 µM): 0.164 | relative viability (HCC-366; first compound 0.1 µM): 0.125 | relative viability (HCC-366; first compound 0.3162 µM): 0.119 | relative viability (HCC-366; first compound 1 µM): 0.0666 | relative viability (NCI-H23; first compound 0.01 µM): 0.41 | relative viability (NCI-H23; first compound 0.03162 µM): 0.711 | relative viability (NCI-H23; first compound 0.1 µM): 0.558 | relative viability (NCI-H23; first compound 0.3162 µM): 0.33 | relative viability (NCI-H23; first compound 1 µM): 0.209 | relative viability (NCI-H2228; first compound 0.01 µM): 0.274 | relative viability (NCI-H2228; first compound 0.03162 µM): 0.464 | relative viability (NCI-H2228; first compound 0.1 µM): 0.321 | relative viability (NCI-H2228; first compound 0.3162 µM): 0.245 | relative viability (NCI-H2228; first compound 1 µM): 0.121 | relative viability (HCC-78; first compound 0.01 µM): 0.539 | relative viability (HCC-78; first compound 0.03162 µM): 0.437 | relative viability (HCC-78; first compound 0.1 µM): 0.515 | relative viability (HCC-78; first compound 0.3162 µM): 0.44 | relative viability (HCC-78; first compound 1 µM): 0.404 | relative viability (EMC-BAC-2; first compound 0.01 µM): 0.295 | relative viability (EMC-BAC-2; first compound 0.03162 µM): 0.302 | relative viability (EMC-BAC-2; first compound 0.1 µM): 0.326 | relative viability (EMC-BAC-2; first compound 0.3162 µM): 0.321 | relative viability (EMC-BAC-2; first compound 1 µM): 0.282 | relative viability (NCI-H1793; first compound 0.01 µM): 0.395 | relative viability (NCI-H1793; first compound 0.03162 µM): 0.403 | relative viability (NCI-H1793; first compound 0.1 µM): 0.314 | relative viability (NCI-H1793; first compound 0.3162 µM): 0.374 | relative viability (NCI-H1793; first compound 1 µM): 0.198 | relative viability (NCI-H1993; first compound 0.01 µM): 0.654 | relative viability (NCI-H1993; first compound 0.03162 µM): 0.579 | relative viability (NCI-H1993; first compound 0.1 µM): 0.628 | relative viability (NCI-H1993; first compound 0.3162 µM): 0.641 | relative viability (NCI-H1993; first compound 1 µM): 0.547 | relative viability (NCI-H1734; first compound 0.01 µM): 0.263 | relative viability (NCI-H1734; first compound 0.03162 µM): 0.25 | relative viability (NCI-H1734; first compound 0.1 µM): 0.234 | relative viability (NCI-H1734; first compound 0.3162 µM): 0.22 | relative viability (NCI-H1734; first compound 1 µM): 0.199 | relative viability (NCI-H2405; first compound 0.01 µM): 0.793 | relative viability (NCI-H2405; first compound 0.03162 µM): 0.832 | relative viability (NCI-H2405; first compound 0.1 µM): 0.783 | relative viability (NCI-H2405; first compound 0.3162 µM): 0.748 | relative viability (NCI-H2405; first compound 1 µM): 0.424 | relative viability (NCI-H2126; first compound 0.01 µM): 0.889 | relative viability (NCI-H2126; first compound 0.03162 µM): 0.888 | relative viability (NCI-H2126; first compound 0.1 µM): 0.937 | relative viability (NCI-H2126; first compound 0.3162 µM): 0.831 | relative viability (NCI-H2126; first compound 1 µM): 0.454 | relative viability (NCI-H2023; first compound 0.01 µM): 0.374 | relative viability (NCI-H2023; first compound 0.03162 µM): 0.307 | relative viability (NCI-H2023; first compound 0.1 µM): 0.227 | relative viability (NCI-H2023; first compound 0.3162 µM): 0.105 | relative viability (NCI-H2023; first compound 1 µM): 0.0751 | relative viability (HCC-15; first compound 0.01 µM): 0.448 | relative viability (HCC-15; first compound 0.03162 µM): 0.381 | relative viability (HCC-15; first compound 0.1 µM): 0.511 | relative viability (HCC-15; first compound 0.3162 µM): 0.432 | relative viability (HCC-15; first compound 1 µM): 0.212 | relative viability (SK-LU-1; first compound 0.01 µM): 0.374 | relative viability (SK-LU-1; first compound 0.03162 µM): 0.246 | relative viability (SK-LU-1; first compound 0.1 µM): 0.17 | relative viability (SK-LU-1; first compound 0.3162 µM): 0.128 | relative viability (SK-LU-1; first compound 1 µM): 0.142 | relative viability (HARA; first compound 0.01 µM): 0.113 | relative viability (HARA; first compound 0.03162 µM): 0.107 | relative viability (HARA; first compound 0.1 µM): 0.12 | relative viability (HARA; first compound 0.3162 µM): 0.103 | relative viability (HARA; first compound 1 µM): 0.0534 | relative viability (LC-2-ad; first compound 0.01 µM): 0.623 | relative viability (LC-2-ad; first compound 0.03162 µM): 0.55 | relative viability (LC-2-ad; first compound 0.1 µM): 0.449 | relative viability (LC-2-ad; first compound 0.3162 µM): 0.463 | relative viability (LC-2-ad; first compound 1 µM): 0.268 | relative viability (NCI-H2009; first compound 0.01 µM): 0.857 | relative viability (NCI-H2009; first compound 0.03162 µM): 0.703 | relative viability (NCI-H2009; first compound 0.1 µM): 0.688 | relative viability (NCI-H2009; first compound 0.3162 µM): 0.543 | relative viability (NCI-H2009; first compound 1 µM): 0.384 | relative viability (UMC-11; first compound 0.01 µM): 0.191 | relative viability (UMC-11; first compound 0.03162 µM): 0.216 | relative viability (UMC-11; first compound 0.1 µM): 0.202 | relative viability (UMC-11; first compound 0.3162 µM): 0.194 | relative viability (UMC-11; first compound 1 µM): 0.191 | relative viability (ABC-1; first compound 0.01 µM): 0.18 | relative viability (ABC-1; first compound 0.03162 µM): 0.178 | relative viability (ABC-1; first compound 0.1 µM): 0.16 | relative viability (ABC-1; first compound 0.3162 µM): 0.115 | relative viability (ABC-1; first compound 1 µM): 0.111 | relative viability (NCI-H838; first compound 0.01 µM): 0.269 | relative viability (NCI-H838; first compound 0.03162 µM): 0.299 | relative viability (NCI-H838; first compound 0.1 µM): 0.244 | relative viability (NCI-H838; first compound 0.3162 µM): 0.187 | relative viability (NCI-H838; first compound 1 µM): 0.128 | relative viability (NCI-H1944; first compound 0.01 µM): 0.253 | relative viability (NCI-H1944; first compound 0.03162 µM): 0.257 | relative viability (NCI-H1944; first compound 0.1 µM): 0.285 | relative viability (NCI-H1944; first compound 0.3162 µM): 0.301 | relative viability (NCI-H1944; first compound 1 µM): 0.248 | relative viability (COR-L23; first compound 0.01 µM): 0.198 | relative viability (COR-L23; first compound 0.03162 µM): 0.229 | relative viability (COR-L23; first compound 0.1 µM): 0.193 | relative viability (COR-L23; first compound 0.3162 µM): 0.17 | relative viability (COR-L23; first compound 1 µM): 0.0829
